In PubChem BioAssay AID1963829 (Molecular Pharmacology Branch, DTP, NCI, 2024):
Where “and” joins values, the source holds several entries; their conditions need not be identical. Equal entries are not always repeated.

Test system: 935938-334-R-J1-PDC complex spheroid viability
Test: Anticancer human tumor 935938-334-R-J1-PDC patient-derived small intestine adenocarcinoma cell line growth inhibition [POLQ]
Settings: for viability, T/C: stronger effect = lower value
Protocol: Multicellular complex tumor spheroid response to Polymerase (POL) inhibitors (novobiocin, ART-558, RP6685) in combination with a variety of drugs and investigational agents in selected tumor cell lines
The POL inhibitors (novobiocin, ART-558, and RP6685) were evaluated both individually and in combination with standard of care and investigational anticancer small molecules within a complex spheroid model of solid tumors. . Complex spheroids include a stromal component modeled by human endothelial cells (HUVEC) and fibroblasts modeled by human mesenchymal stem cells (MSCs). The concentration ranges selected for each drug and investigational agent were based upon clinically achievable concentrations if the clinical Cmax of the agent was known.
Compounds. The drugs and investigational agents: novobiocin (NSC847541), ART-558 (NSC835418), RP-6685 (NSC848927), peposertib (NSC802822), ceralasertib (NSC780249), elimusertib (NSC800525), camonsertib (NSC841442), AZD-1390 (NSC803789), olaparib (NSC753686), talazoparib (NSC767125), rucaparib (NSC756644), sotorasib (NSC818433), MRTX-1133 (NSC836407), SN-38 (NSC673596), topotecan (NSC609699), epotoside (NSC141540), doxorubicin (NSC123127), gemcitabine (NSC613327), 5-fluorouracil (NSC19893), paclitaxel (NSC125973), vemurafenib (NSC761431), MSA-2 (NSC828583), SN-011 (NSC837082), adavosertib (NSC754352), prexasertib (NSC758257), carboplatin (NSC241240) and oxaliplatin (NSC266046), were obtained from the National Cancer Institute (NCI) Developmental Therapeutics Program Chemical Repository (21). The FDA-approved anticancer drug set is available from the Developmental Therapeutics Program at https://dtp.cancer.gov/organization/dscb/obtaining/. […] The stock solutions were prepared in dimethyl sulfoxide (DMSO, Sigma-Aldrich, St. Louis, MO, cat. D2650), except for the platinum compounds which were prepared in saline (Quality Biological, Gaithersburg, MD, cat. 114-055-101), at 800-fold the tested concentration and stored at -70 degrees C prior to their use. All drugs and investigational agents were tested over a range starting from a high concentration at or near the clinical Cmax and decreasing in half-log increments. If the clinical Cmax for an agent had not been determined, the highest concentration tested was 10 microM, except for SN-38, which was tested at a high concentration of 1 microM.
Cell Culture. All cells were maintained in an incubator at 37 degrees C and 5% CO2 with 95% humidity. The PDC lines were cultured according to standard operating procedures established by the NCI PDMR (https://pdmr.cancer.gov). Table 3 of the manuscript, lists the cell lines along with the number of the three cell types plated to form the mct-spheroids and media for tumor cell growth. After thawing, all PDC lines, except 997537-175-T-J1-PDC and 415267-285-R-J2-PDC, were cultured in Matrigel-coated flasks prepared with a working solution of 1X Ham's F-12 nutrient mix, without supplementation (Thermo Fisher Scientific, cat. 11765054), 100 U/mL penicillin-streptomycin (Thermo Fisher Scientific, cat. 15140122), and 2.5% Matrigel (Corning Inc., Corning, NY, cat. 354248) for the first three passages. The two PDC lines 997537-175-T-J1-PDC and 415267-285-R-J2-PDC were cultured on uncoated flasks. The 857933-349-R-J2-PDC line was cultured in 6C/Colon 1B media containing advanced DMEM/F-12 (Thermo Fisher Scientific, cat. 12634028), 10 mM HEPES (Thermo Fisher Scientific, cat. 15630080), 1X GlutaMAX supplement (Thermo Fisher Scientific, cat. 35050061), 0.1 mg/mL primocin (InvivoGen, San Diego, CA, cat. ant-pm-2), 10% defined fetal bovine serum, heat inactivated (HyClone Laboratories Inc., Logan, UT, cat. SH30070.03HI), 50% L-WRN conditioned media (ATCC, cat. CRL-3276), 1.25 mM N-Acetyl-L-cysteine (Sigma-Aldrich, cat. A9165), 10 mM nicotinamide (Sigma-Aldrich, cat. N0636), 1X B-27 supplement (Thermo Fisher Scientific, cat. 17504044), 1X N-2 supplement (Thermo Fisher Scientific, cat. […]

[1] = compound alone, run of 11/27/2023
[2] = compound alone, run of 12/05/2023
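Note: spheroids exposed to drugs for seven days before viability read.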
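Throughout, for viability, T/C: 100% = DMSO vehicle control wells.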

Structure (SMILES): CCc1cc2c(N3CCc4c(cc(Cn5ccnc5)cc4-c4cn(C)nc4C(F)(F)F)C3=O)ccnc2c(OC)n1
- viability, T/C (compound 0.0316 µM): 78.9% and 69.7% and 64.6%
- viability, T/C (compound 0.1 µM): 56.2% and 71.7% and 57.9%
- viability, T/C (compound 0.316 µM): 70.9% and 68.9% and 69.7%
- viability, T/C (compound 1 µM): 61.2% and 62% and 60.9%
- viability, T/C (compound 3.16 µM): 64.3% and 76.9% and 69.6%
- viability, T/C (compound 10 µM): 57.7% and 50.2% and 58.4%
- IC50 (curve of compound): > 10000 nM

Structure (SMILES): CNCc1ccc(-c2[nH]c3cc(F)cc4c3c2CCNC4=O)cc1
- viability, T/C (compound 0.0316 µM): 114% and 107% and 98.2%
- viability, T/C (compound 0.1 µM): 119% and 78.9% and 107%
- viability, T/C (compound 0.316 µM): 92.8% and 87.7% and 94.1%
- viability, T/C (compound 1 µM): 88% and 96% and 108%
- viability, T/C (compound 3.16 µM): 94% and 139% and 114%
- viability, T/C (compound 10 µM): 109% and 116% and 90.9%
- IC50 (curve of compound): > 10000 nM

Structure (SMILES): COC1C(OC(N)=O)C(O)C(Oc2ccc3c(O)c(NC(=O)c4ccc(O)c(CC=C(C)C)c4)c(=O)oc3c2C)OC1(C)C (stereo not drawn)
- IC50 [1]: > 10000 nM

Structure (SMILES): COc1cc(C2c3cc4c(cc3C(OC3OC5COC(C)OC5C(O)C3O)C3COC(=O)C23)OCO4)cc(OC)c1O (stereo not drawn)
- viability, T/C (compound 0.0316 µM): 108% and 93.2% and 99.1%
- viability, T/C (compound 0.1 µM): 103% and 85.7% and 106%
- viability, T/C (compound 0.316 µM): 61.8% and 90.5% and 72.3%
- viability, T/C (compound 1 µM): 49.7% and 44.2% and 35.8%
- viability, T/C (compound 3.16 µM): 28.1% and 26.1% and 27.6%
- viability, T/C (compound 10 µM): 31.2% and 30.3% and 30.4%
- IC50 (curve of compound): 707 nM and 864 nM and 621 nM

Structure (SMILES): COc1cc2cc(C(=O)CCC(=O)O)sc2cc1OC
- viability, T/C (compound 0.0316 µM): 106% and 94.9% and 129%
- viability, T/C (compound 0.1 µM): 67.4% and 98.4% and 94.5%
- viability, T/C (compound 0.316 µM): 126% and 89.9% and 95.3%
- viability, T/C (compound 1 µM): 100% and 99.5% and 86.7%
- viability, T/C (compound 3.16 µM): 84.1% and 107% and 110%
- viability, T/C (compound 10 µM): 67.2% and 78.6% and 93.8%
- IC50 (curve of compound): > 10000 nM

Structure (SMILES): COc1ccc([C@@H](O)c2cc(-c3ncnc4cc(N5CCOCC5)ccc34)c(F)cc2Cl)nn1
- viability, T/C (compound 0.0316 µM): 92.9% and 78.8% and 78%
- viability, T/C (compound 0.1 µM): 81.3% and 85.4% and 74.1%
- viability, T/C (compound 0.316 µM): 104% and 91.9% and 83.3%
- viability, T/C (compound 1 µM): 67.2% and 91.9% and 95.6%
- viability, T/C (compound 3.16 µM): 78% and 69.2% and 62.2%
- viability, T/C (compound 10 µM): 36.1% and 31.2% and 33.4%
- IC50 (curve of compound): 6470 nM and 5660 nM and 5150 nM

Structure (SMILES): COc1cccc(OCCCN)c1-c1cc(Nc2cnc(C#N)cn2)n[nH]1
- viability, T/C (compound 0.00316 µM): 93.3% and 117% and 102%
- viability, T/C (compound 0.01 µM): 77.8% and 102% and 85.5%
- viability, T/C (compound 0.0316 µM): 53.3% and 60.4% and 57.6%
- viability, T/C (compound 0.1 µM): 22.6% and 36.9% and 41.6%
- viability, T/C (compound 0.316 µM): 11.3% and 14.1% and 8.34%
- viability, T/C (compound 1 µM): 10% and 10.2% and 9.09%
- IC50 (curve of compound): 33.6 nM and 53.8 nM and 50.9 nM

Structure (SMILES): COc1cccc2c1C(=O)c1c(O)c3c(c(O)c1C2=O)CC(O)(C(=O)CO)CC3OC1CC(N)C(O)C(C)O1 (stereo not drawn)
- viability, T/C (compound 0.0316 µM): 68.8% and 69.1% and 56.6%
- viability, T/C (compound 0.1 µM): 39.8% and 38.5% and 102%
- viability, T/C (compound 0.316 µM): 25.9% and 33.7% and 25.3%
- viability, T/C (compound 1 µM): 23.2% and 22.7% and 24.1%
- viability, T/C (compound 3.16 µM): 7.61% and 6.31% and 3.97%
- viability, T/C (compound 10 µM): 6.95% and 3.94% and 4.69%
- IC50 (curve of compound): 70.7 nM and 79.2 nM and 187 nM

Structure (SMILES): Cc1cccc(N(C)C(=O)C2C(O)CCN2c2nc(C)cc(C(F)(F)F)c2C#N)c1 (stereo not drawn)
- IC50 [1]: > 10000 nM
- IC50 [2]: > 10000 nM

Structure (SMILES): Cn1ncnc1[C@H]1c2n[nH]c(=O)c3cc(F)cc(c23)N[C@@H]1c1ccc(F)cc1
- viability, T/C (compound 0.000316 µM): 87.9% and 80.8% and 110%
- viability, T/C (compound 0.001 µM): 83.2% and 90.4% and 112%
- viability, T/C (compound 0.00316 µM): 82.5% and 83.7% and 85.8%
- viability, T/C (compound 0.01 µM): 93.8% and 99.9% and 105%
- viability, T/C (compound 0.0316 µM): 113% and 94.7% and 116%
- viability, T/C (compound 0.1 µM): 99.4% and 96.1% and 76.1%
- IC50 (curve of compound): > 100 nM

Structure (SMILES): Nc1ccc(C#CCN(C(=O)Cc2ncc(C(F)(F)F)cc2C(F)(F)F)c2ccc(F)cc2)nn1
- IC50 [2]: > 10000 nM

Structure (SMILES): Nc1ccn(C2OC(CO)C(O)C2(F)F)c(=O)n1 (stereo not drawn)
- viability, T/C (compound 0.0316 µM): 39.8% and 30.9% and 30.5%
- viability, T/C (compound 0.1 µM): 26.2% and 19.4% and 23.6%
- viability, T/C (compound 0.316 µM): 23.7% and 17.5% and 14.9%
- viability, T/C (compound 1 µM): 22.1% and 18.1% and 16%
- viability, T/C (compound 3.16 µM): 20.7% (2×) and 16.5%
- viability, T/C (compound 10 µM): 18.4% and 16% and 17.2%
- IC50 (curve of compound): < 31.6 nM

Structure (SMILES): O=C(Nc1ccc(O)c(NS(=O)(=O)c2ccc(F)cc2)c1)c1ccc(-c2ccccc2)cc1
- viability, T/C (compound 0.0316 µM): 105% and 85.8% and 92.8%
- viability, T/C (compound 0.1 µM): 90.5% and 105% and 85.8%
- viability, T/C (compound 0.316 µM): 76.6% and 90.5% and 111%
- viability, T/C (compound 1 µM): 80.5% and 76.2% and 111%
- viability, T/C (compound 3.16 µM): 103% and 84.1% and 91.1%
- viability, T/C (compound 10 µM): 93.4% and 63.7% and 69.9%
- IC50 (curve of compound): > 10000 nM

Structure (SMILES): O=C(c1cc(Cc2n[nH]c(=O)c3ccccc23)ccc1F)N1CCN(C(=O)C2CC2)CC1
- viability, T/C (compound 0.0316 µM): 88.4% and 80.5% and 75%
- viability, T/C (compound 0.1 µM): 103% and 70.2% and 77.2%
- viability, T/C (compound 0.316 µM): 100% and 67.5% and 112%
- viability, T/C (compound 1 µM): 94.9% and 67.4% and 68.7%
- viability, T/C (compound 3.16 µM): 72% and 64.6% and 73.7%
- viability, T/C (compound 10 µM): 54.9% and 55.4% and 55.1%
- IC50 (curve of compound): > 10000 nM

Structure (SMILES): O=c1[nH]cc(F)c(=O)[nH]1
- viability, T/C (compound 0.0316 µM): 103% and 81.1% and 79.2%
- viability, T/C (compound 0.1 µM): 114% and 90.2% and 81.6%
- viability, T/C (compound 0.316 µM): 113% and 80.6% and 77.4%
- viability, T/C (compound 1 µM): 90.5% and 72.5% and 74.6%
- viability, T/C (compound 3.16 µM): 75.5% and 63.4% and 54.9%
- viability, T/C (compound 10 µM): 59% and 54.3% and 47.8%
- IC50 (curve of compound): > 10000 nM and 7010 nM
